System: 945468-187-T-J3-PDC spheroids with HUVEC/MSC, viability
Assay: Anticancer human tumor 945468-187-T-J3-PDC patient-derived rectal carcinoma cell line growth inhibition [PI3K]
Conditions: for IC50: curve of first compound; for viability, T/C: stronger effect = lower value
Summary of the method: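 Tumor cells were combined with HUVEC and MSCs into spheroids, then dosed with PI3K-inhibitor combinations over half-log ranges capped near clinical Cmax or 10 microM.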

[1] = second compound 0.0316 µM, first compound 0.0316 µM
[2] = second compound 0.0316 µM, first compound 0.1 µM
[3] = second compound 0.0316 µM, first compound 0.316 µM
[4] = second compound 0.0316 µM, first compound 1 µM
[5] = second compound 0.0316 µM, first compound 3.16 µM
[6] = second compound 0.0316 µM, first compound 10 µM
[7] = second compound 0.1 µM, first compound 0.0316 µM
[8] = second compound 0.1 µM, first compound 0.1 µM
[9] = second compound 0.1 µM, first compound 0.316 µM
[10] = second compound 0.1 µM, first compound 1 µM
[11] = second compound 0.1 µM, first compound 3.16 µM
[12] = second compound 0.1 µM, first compound 10 µM
[13] = second compound 0.316 µM, first compound 0.0316 µM
[14] = second compound 0.316 µM, first compound 0.1 µM
[15] = second compound 0.316 µM, first compound 0.316 µM
[16] = second compound 0.316 µM, first compound 1 µM
[17] = second compound 0.316 µM, first compound 3.16 µM
[18] = second compound 0.316 µM, first compound 10 µM
[19] = second compound 1 µM, first compound 0.0316 µM
[20] = second compound 1 µM, first compound 0.1 µM
[21] = second compound 1 µM, first compound 0.316 µM
[22] = second compound 1 µM, first compound 1 µM
[23] = second compound 1 µM, first compound 3.16 µM
[24] = second compound 1 µM, first compound 10 µM
[25] = second compound 3.16 µM, first compound 0.0316 µM
[26] = second compound 3.16 µM, first compound 0.1 µM
[27] = second compound 3.16 µM, first compound 0.316 µM
[28] = second compound 3.16 µM, first compound 1 µM
[29] = second compound 3.16 µM, first compound 3.16 µM
[30] = second compound 3.16 µM, first compound 10 µM
[31] = second compound 10 µM, first compound 0.0316 µM
[32] = second compound 10 µM, first compound 0.1 µM
[33] = second compound 10 µM, first compound 0.316 µM
[34] = second compound 10 µM, first compound 1 µM
[35] = second compound 10 µM, first compound 3.16 µM
[36] = second compound 10 µM, first compound 10 µM
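Further: spheroids exposed to agents for 7 days before viability read.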
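Wherever viability, T/C is given: 100% = DMSO vehicle control viability.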

Compound: CC(C)NCC(C(=O)N1CCN(c2ncnc3c2C(C)CC3O)CC1)c1ccc(Cl)cc1 (stereo not drawn) + CC(Nc1ncnc2nc[nH]c12)c1cc2cccc(Cl)c2c(=O)n1-c1ccccc1
- IC50 (second compound 0.0316 µM): 4.58 µM
- IC50 (second compound 0.1 µM): 6.84 µM
- IC50 (second compound 0.316 µM): 6.66 µM
- IC50 (second compound 1 µM): 8.31 µM
- IC50 (second compound 3.16 µM): 2.97 µM
- IC50 (second compound 10 µM): 2.06 µM
- viability, T/C [1]: 112%
- viability, T/C [2]: 100%
- viability, T/C [3]: 104%
- viability, T/C [4]: 78.9%
- viability, T/C [5]: 56.3%
- viability, T/C [6]: 38.4%
- viability, T/C [7]: 119%
- viability, T/C [8]: 92.3%
- viability, T/C [9]: 86%
- viability, T/C [10]: 88.6%
- viability, T/C [11]: 62.6%
- viability, T/C [12]: 40.5%
- viability, T/C [13]: 97.2%
- viability, T/C [14]: 93.2%
- viability, T/C [15]: 94.6%
- viability, T/C [16]: 87.6%
- viability, T/C [17]: 63.5%
- viability, T/C [18]: 42.7%
- viability, T/C [19]: 114%
- viability, T/C [20]: 103%
- viability, T/C [21]: 85.3%
- viability, T/C [22]: 86%
- viability, T/C [23]: 58.6%
- viability, T/C [24]: 48.1%
- viability, T/C [25]: 98.3%
- viability, T/C [26]: 91.8%
- viability, T/C [27]: 84.2%
- viability, T/C [28]: 79.2%
- viability, T/C [29]: 46.5%
- viability, T/C [30]: 32.4%
- viability, T/C [31]: 90.7%
- viability, T/C [32]: 88%
- viability, T/C [33]: 82.8%
- viability, T/C [34]: 70.8%
- viability, T/C [35]: 37.5%
- viability, T/C [36]: 28.2%

Compound: CCN1CCN(Cc2ccc(Nc3ncc(F)c(-c4cc(F)c5nc(C)n(C(C)C)c5c4)n3)nc2)CC1 + CC(Nc1ncnc2nc[nH]c12)c1cc2cccc(Cl)c2c(=O)n1-c1ccccc1
- IC50 (second compound 0.0316 µM): > 1 µM
- IC50 (second compound 0.1 µM): > 1 µM
- IC50 (second compound 0.316 µM): > 1 µM
- IC50 (second compound 1 µM): > 1 µM
- IC50 (second compound 3.16 µM): > 1 µM
- IC50 (second compound 10 µM): 0.762 µM
- viability, T/C (second compound 0.0316 µM, first compound 0.00316 µM): 88.7%
- viability, T/C (second compound 0.0316 µM, first compound 0.01 µM): 110%
- viability, T/C [1]: 107%
- viability, T/C [2]: 94%
- viability, T/C [3]: 102%
- viability, T/C [4]: 79.2%
- viability, T/C (second compound 0.1 µM, first compound 0.00316 µM): 91.5%
- viability, T/C (second compound 0.1 µM, first compound 0.01 µM): 85.3%
- viability, T/C [7]: 99%
- viability, T/C [8]: 99.5%
- viability, T/C [9]: 102%
- viability, T/C [10]: 72%
- viability, T/C (second compound 0.316 µM, first compound 0.00316 µM): 97.3%
- viability, T/C (second compound 0.316 µM, first compound 0.01 µM): 91%
- viability, T/C [13]: 89.8%
- viability, T/C [14]: 113%
- viability, T/C [15]: 106%
- viability, T/C [16]: 72.8%
- viability, T/C (second compound 1 µM, first compound 0.00316 µM): 87.8%
- viability, T/C (second compound 1 µM, first compound 0.01 µM): 95.9%
- viability, T/C [19]: 91.3%
- viability, T/C [20]: 103%
- viability, T/C [21]: 93.8%
- viability, T/C [22]: 69.2%
- viability, T/C (second compound 3.16 µM, first compound 0.00316 µM): 93.9%
- viability, T/C (second compound 3.16 µM, first compound 0.01 µM): 101%
- viability, T/C [25]: 103%
- viability, T/C [26]: 95.1%
- viability, T/C [27]: 93%
- viability, T/C [28]: 52.5%
- viability, T/C (second compound 10 µM, first compound 0.00316 µM): 91.5%
- viability, T/C (second compound 10 µM, first compound 0.01 µM): 89.5%
- viability, T/C [31]: 91%
- viability, T/C [32]: 106%
- viability, T/C [33]: 90%
- viability, T/C [34]: 37.1%

Compound: Cn1ncc(Cl)c1-c1cc(C(=O)NC(CN)Cc2cccc(F)c2)sc1Cl (stereo not drawn) + CC(Nc1ncnc2nc[nH]c12)c1cc2cccc(Cl)c2c(=O)n1-c1ccccc1
- IC50 (second compound 0.0316 µM): 1.72 µM
- IC50 (second compound 0.1 µM): 2.39 µM
- IC50 (second compound 0.316 µM): 1.97 µM
- IC50 (second compound 1 µM): 1.34 µM
- IC50 (second compound 3.16 µM): 1.73 µM
- IC50 (second compound 10 µM): 1.14 µM
- viability, T/C [1]: 101%
- viability, T/C [2]: 96%
- viability, T/C [3]: 99.9%
- viability, T/C [4]: 59.3%
- viability, T/C [5]: 44.9%
- viability, T/C [6]: 33.5%
- viability, T/C [7]: 94.9%
- viability, T/C [8]: 104%
- viability, T/C [9]: 88.2%
- viability, T/C [10]: 60.5%
- viability, T/C [11]: 51.5%
- viability, T/C [12]: 38.2%
- viability, T/C [13]: 106%
- viability, T/C [14]: 97.3%
- viability, T/C [15]: 87.3%
- viability, T/C [16]: 62.1%
- viability, T/C [17]: 41.2%
- viability, T/C [18]: 28.6%
- viability, T/C [19]: 112%
- viability, T/C [20]: 89.5%
- viability, T/C [21]: 86.2%
- viability, T/C [22]: 48.6%
- viability, T/C [23]: 39%
- viability, T/C [24]: 28.5%
- viability, T/C [25]: 107%
- viability, T/C [26]: 97.7%
- viability, T/C [27]: 86.5%
- viability, T/C [28]: 57.6%
- viability, T/C [29]: 40.7%
- viability, T/C [30]: 24.6%
- viability, T/C [31]: 107%
- viability, T/C [32]: 75.9%
- viability, T/C [33]: 84.2%
- viability, T/C [34]: 44.5%
- viability, T/C [35]: 35%
- viability, T/C [36]: 20.1%

Compound: Cn1nccc1Nc1nccc(-c2ccn(C(CO)c3ccc(Cl)c(F)c3)c(=O)c2)n1 (stereo not drawn) + CC(Nc1ncnc2nc[nH]c12)c1cc2cccc(Cl)c2c(=O)n1-c1ccccc1
- IC50 (second compound 0.0316 µM): > 10 µM
- IC50 (second compound 0.1 µM): > 10 µM
- IC50 (second compound 0.316 µM): > 10 µM
- IC50 (second compound 1 µM): > 10 µM
- IC50 (second compound 3.16 µM): > 10 µM
- IC50 (second compound 10 µM): > 10 µM
- viability, T/C [1]: 126%
- viability, T/C [2]: 108%
- viability, T/C [3]: 117%
- viability, T/C [4]: 107%
- viability, T/C [5]: 113%
- viability, T/C [6]: 132%
- viability, T/C [7]: 94.3%
- viability, T/C [8]: 101%
- viability, T/C [9]: 113%
- viability, T/C [10]: 116%
- viability, T/C [11]: 117%
- viability, T/C [12]: 116%
- viability, T/C [13]: 93.3%
- viability, T/C [14]: 107%
- viability, T/C [15]: 111%
- viability, T/C [16]: 114%
- viability, T/C [17]: 116%
- viability, T/C [18]: 139%
- viability, T/C [19]: 113%
- viability, T/C [20]: 127%
- viability, T/C [21]: 102%
- viability, T/C [22]: 121%
- viability, T/C [23]: 118%
- viability, T/C [24]: 136%
- viability, T/C [25]: 108%
- viability, T/C [26]: 109%
- viability, T/C [27]: 106%
- viability, T/C [28]: 120%
- viability, T/C [29]: 116%
- viability, T/C [30]: 122%
- viability, T/C [31]: 104%
- viability, T/C [32]: 108%
- viability, T/C [33]: 111%
- viability, T/C [34]: 123%
- viability, T/C [35]: 108%
- viability, T/C [36]: 123%
